Assay results reported in patent US20060069132A1, “Azolecarboxamide herbicides” (priority 2004, published 2006).

Key:
[1] = test system: barnyardgrass; assay: Test B flooded paddy test; assay type: in vivo, Echinochloa crus-galli; settings: 1000 g ai/ha, scale 0 to 100 (0 no effect, 100 complete control)
Summary of the method: (§1)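 Visual control ratings, 0–100 versus untreated controls, taken after 13 to 15 days in the greenhouse. Blackgrass received a postemergence spray at the 1- to 4-leaf stage (2–18 cm); ducksalad, umbrella sedge and barnyardgrass were flooded-paddy treated at 2 leaves.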

[2] = test system: cocklebur; assay: Test C pre-/postemergence herbicide test; assay type: in vivo, Xanthium strumarium
Text: (§2) Seeds of plant species selected from bermudagrass (Cynodon dactylon (L.) Pers.), Surinam grass (Urochloa decumbens (Staph) R. D. Webster, previously named Brachiaria decumbens Stapf), cocklebur (Xanthium strumarium L.), corn (Zea mays L.), large crabgrass (Digitaria sanguinalis (L.) Scop.), woolly cupgrass (Eriochloa villosa (Thunb.) Kunth), giant foxtail (Setaria faberi Herrm.), goosegrass (Eleusine indica (L.) Gaertn.), johnsongrass (Sorghum halepense (L.) Pers.), kochia (Kochia scoparia (L.) Schrad.), lambsquarters (Chenopodium album L.), morningglory (Ipomoea coccinea L.), eastern black nightshade (Solanum ptycanthum Dunal), yellow nutsedge (Cyperus esculentus L.), pigweed (Amaranthus retroflexus L.), common ragweed (Ambrosia elatior L.), soybean (Glycine max (L.) Merr.), common (oilseed) sunflower (Helianthus annuus L.) and velvetleaf (Abutilon theophrasti Medik.) were planted and treated preemergence with test chemicals formulated in a non-phytotoxic solvent mixture which included a surfactant.
(§3) At the same time, plants selected from these crop and weed species and also winter barley (Hordeum vulgare L.), blackgrass (Alopecurus myosuroides Huds.), canarygrass (Phalaris minor Retz.), chickweed (Stellaria media (L.) Vill.), downy bromegrass (Bromus tectorum L.), green foxtail (Setaria viridis (L.) Beauv.), Italian ryegrass (Lolium multiflorum Lam.), wheat (Triticum aestivum L.), wild oat (Avenafatua L.) and windgrass (Apera spica-venti (L.) Beauv.) were treated with postemergence applications of some of the test chemicals formulated in the same manner. Plants ranged in height from 2 to 18 cm (1- to 4-leaf stage) for postemergence treatments. Plant species in the flooded paddy test consisted of rice (Oryza sativa), smallflower umbrella sedge (Cyperus difformis L.), ducksalad (Heteranthera limosa (Sw.) Willd.) and barnyardgrass (Echinochloa crus-galli (L.) Beauv.) grown to the 2-leaf stage for testing. Treated plants and controls were maintained in a greenhouse for 12 to 14 days, after which time all species were compared to controls and visually evaluated. Plant response ratings, summarized in Table C, are based on a scale of 0 to 100 where 0 is no effect and 100 is complete control. A dash (-) response means no test result.

[3] = test system: ducksalad; assay: Test B flooded paddy test; assay type: in vivo, Heteranthera limosa; settings: 1000 g ai/ha, scale 0 to 100 (0 no effect, 100 complete control)
Summary of the method: as §1

[4] = test system: corn; assay: Test C pre-/postemergence herbicide test; assay type: in vivo, Zea mays
Text: as §2, §3

[5] = test system: goosegrass; assay: Test C pre-/postemergence herbicide test; assay type: in vivo, Eleusine indica
Text: as §2, §3

[6] = test system: rice; assay: Test B flooded paddy test; assay type: in vivo, Oryza sativa; settings: 1000 g ai/ha, scale 0 to 100 (0 no effect, 100 complete control)
Summary of the method: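 Read-out: visual comparison with controls, scored 0 to 100, where 100 means complete control and 0 no effect. Formulated chemicals were applied postemergence to plants 2–18 cm tall (1- to 4-leaf), or to flooded-paddy plants at the 2-leaf stage, then held 13 to 15 days under glass.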

[7] = test system: lambsquarters; assay: Test C pre-/postemergence herbicide test; assay type: in vivo, Chenopodium album
Text: as §2, §3

[8] = test system: velvetleaf; assay: Test C pre-/postemergence herbicide test; assay type: in vivo, Abutilon theophrasti
Text: as §2, §3

[9] = test system: johnsongrass; assay: Test C pre-/postemergence herbicide test; assay type: in vivo, Sorghum halepense
Text: as §2, §3

[10] = test system: ducksalad; assay: Test C flooded paddy test; assay type: in vivo, Heteranthera limosa
[11] = test system: smallflower umbrella sedge; assay: Test C flooded paddy test; assay type: in vivo, Cyperus difformis
[12] = Postemergence, 500 g ai/ha, scale 0 to 100
[13] = 125 g ai/ha, scale 0 to 100 (0 no effect, 100 complete control)
[14] = 250 g ai/ha, scale of 0 to 100, 0 is no effect, 100 is complete control
[15] = 500 g ai/ha, visual rating after 12 to 14 days, scale 0 to 100 (0 no effect, 100 complete control)
[16] = Postemergence, 250 g ai/ha, scale 0 to 100, 0 no effect, 100 complete control
[17] = postemergence, 125 g ai/ha, scale 0 to 100
[18] = postemergence, 62 g ai/ha, scale 0 to 100

CCn1nc(C(C)(C)C)cc1C(=O)Nc1cccc(C(=O)OCCF)c1 [Compound 82, 2-fluoroethyl 3-[[[3-(1,1-dimethylethyl)-1-ethyl-1H-pyrazol-5-yl]-carbonyl]amino]benzoate]
pest or weed control at 1000 g/ha ([1]; Echinochloa crus-galli, 336 h, visual rating, 13 to 15 days, read-out: Barnyardgrass plant response rating): 30% | pest or weed control at 500 g/ha ([2]; Xanthium strumarium, post-emergence, 312 h, Postemergence, 500 g ai/ha, scale 0 to 100, read-out: Cocklebur plant response rating): 20% | pest or weed control at 250 g/ha ([2]; Xanthium strumarium, post-emergence, 312 h, Postemergence, 250 g ai/ha, scale 0 to 100, 0 no effect, 100 complete control, read-out: Plant response rating, Cocklebur): 5% | pest or weed control at 125 g/ha ([2]; Xanthium strumarium, post-emergence, 312 h, postemergence, 125 g ai/ha, scale 0 to 100, read-out: Plant response rating, Cocklebur): 5% | pest or weed control at 62 g/ha ([2]; Xanthium strumarium, post-emergence, 312 h, postemergence, 62 g ai/ha, scale 0 to 100, read-out: Plant response rating, Cocklebur): 5% | pest or weed control at 1000 g/ha ([3]; Heteranthera limosa, 336 h, visual rating, 13 to 15 days, read-out: Ducksalad plant response rating): 20% | Corn plant response rating [4, 12]: 45 | Corn plant response rating (crop injury, 0 = no effect, 100 = complete kill) at 250 g/ha ([4]; Zea mays, post-emergence, 312 h, Postemergence, 250 g ai/ha, scale 0 to 100, 0 no effect, 100 complete control): 10% | Corn plant response rating (crop injury, 0 = no effect, 100 = complete kill) at 125 g/ha ([4]; Zea mays, post-emergence, 312 h, postemergence, 125 g ai/ha, scale 0 to 100): 10% | Corn plant response rating (crop injury, 0 = no effect, 100 = complete kill) at 62 g/ha ([4]; Zea mays, post-emergence, 312 h, postemergence, 62 g ai/ha, scale 0 to 100): 10% | pest or weed control at 250 g/ha ([5]; Eleusine indica, post-emergence, 312 h, Postemergence, 250 g ai/ha, scale 0 to 100, 0 no effect, 100 complete control, read-out: Plant response rating, Goosegrass): 10% | pest or weed control at 125 g/ha ([5]; Eleusine indica, post-emergence, 312 h, postemergence, 125 g ai/ha, scale 0 to 100, read-out: Plant response rating, Goosegrass): 10% | pest or weed control at 62 g/ha ([5]; Eleusine indica, post-emergence, 312 h, postemergence, 62 g ai/ha, scale 0 to 100, read-out: Plant response rating, Goosegrass): 0% | Goosegrass plant response rating [5, 12]: 10 | plant injury at 1000 g/ha ([6]; Oryza sativa, 336 h, visual rating, 13 to 15 days, read-out: Rice plant response rating): 40% | pest or weed control at 250 g/ha ([7]; Chenopodium album, post-emergence, Postemergence, 250 g ai/ha, scale 0 to 100, 0 no effect, 100 complete control, read-out: Plant response rating, Lambsquarters): 80% | pest or weed control at 125 g/ha ([7]; Chenopodium album, post-emergence, postemergence, 125 g ai/ha, scale 0 to 100, read-out: Plant response rating, Lambsquarters): 50% | pest or weed control at 62 g/ha ([7]; Chenopodium album, post-emergence, postemergence, 62 g ai/ha, scale 0 to 100, read-out: Plant response rating, Lambsquarters): 30% | Lambsquarters plant response rating [7, 12]: 100 | pest or weed control at 250 g/ha ([8]; Abutilon theophrasti, post-emergence, Postemergence, 250 g ai/ha, scale 0 to 100, 0 no effect, 100 complete control, read-out: Plant response rating, Velvetleaf): 70% | pest or weed control at 125 g/ha ([8]; Abutilon theophrasti, post-emergence, postemergence, 125 g ai/ha, scale 0 to 100, read-out: Plant response rating, Velvetleaf): 10% | pest or weed control at 62 g/ha ([8]; Abutilon theophrasti, post-emergence, postemergence, 62 g ai/ha, scale 0 to 100, read-out: Plant response rating, Velvetleaf): 5% | Velvetleaf plant response rating [8, 12]: 75 | Johnsongrass plant response rating [9, 12]: 10 | pest or weed control at 250 g/ha ([9]; Sorghum halepense, post-emergence, Postemergence, 250 g ai/ha, scale 0 to 100, 0 no effect, 100 complete control, read-out: Plant response rating, Johnsongrass): 5% | pest or weed control at 125 g/ha ([9]; Sorghum halepense, post-emergence, postemergence, 125 g ai/ha, scale 0 to 100, read-out: Plant response rating, Johnsongrass): 0% | pest or weed control at 62 g/ha ([9]; Sorghum halepense, post-emergence, postemergence, 62 g ai/ha, scale 0 to 100, read-out: Plant response rating, Johnsongrass): 0%

CCOC(=O)c1cccc(NC(=O)c2cc(C3(C)CC3)nn2CC)c1 [Compound 295]
Barnyardgrass plant response rating [1]: 60 | Ducksalad plant response rating ([10]; 62 g ai/ha, scale 0 to 100): 0 | Ducksalad plant response rating [10, 13]: 0 | Ducksalad plant response rating [10, 14]: 25 | Plant response rating, Ducksalad [10, 15]: 30 | Plant response rating, Cocklebur [2, 16]: 10 | Plant response rating, Cocklebur [2, 17]: 5 | Plant response rating, Cocklebur ([2]; postemergence, 31 g ai/ha, scale 0 to 100): 5 | Plant response rating, Cocklebur [2, 18]: 5 | Ducksalad plant response rating [3]: 70 | Plant response rating, Corn [4, 16]: 15 | Plant response rating, Corn [4, 17]: 10 | Plant response rating, Corn [4, 18]: 5 | Plant response rating, Goosegrass [5, 16]: 50 | Plant response rating, Goosegrass [5, 17]: 20 | Plant response rating, Goosegrass [5, 18]: 20 | Rice plant response rating [6]: 50 | Plant response rating, Lambsquarters [7, 16]: 50 | Plant response rating, Lambsquarters [7, 17]: 5 | Plant response rating, Lambsquarters [7, 18]: 0 | Sedge, Umbrella plant response rating ([11]; 62 g ai/ha, scale 0 to 100): 80 | Sedge, Umbrella plant response rating [11, 13]: 80 | Sedge, Umbrella plant response rating [11, 14]: 80 | Plant response rating, Sedge, Umbrella [11, 15]: 80 | Plant response rating, Velvetleaf [8, 16]: 70 | Plant response rating, Velvetleaf [8, 17]: 65 | Plant response rating, Velvetleaf [8, 18]: 60 | Plant response rating, Johnsongrass [9, 16]: 5 | Plant response rating, Johnsongrass [9, 17]: 5 | Plant response rating, Johnsongrass [9, 18]: 5
